Source: patent US8637525B2, “Compounds for the reduction of beta-amyloid production” (Bristol-Myers Squibb Company, priority 2009, dated 2014)

system: Aβ1-42 production; test: Cellular assay for inhibition of Aβ1-42 production (H4 APP751 SWE clone 8.20); type: cell-based; details: 19 h, H4 APP751 SWE clone 8.20 cells, 19 h incubation; class symbols; read-out: Activity Rating (Aβ42 cellular IC50)
Outline: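 Aβ42 read by time-resolved FRET using neoepitope antibody 565 (0.8 ng/well) paired with N-terminal 26D6 (75 ng/well), incubated overnight at 4 °C, then IC50 curve fitting. Cells: H4 APP751 Swedish clone 8.20, exposed to compound for 19 h at 37 °C.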

IC50 | Structure (SMILES)
10 to 100 nM | COc1cc(Nc2nc3c(c(N4CCC[C@@H]4C)n2)COC3c2ccc(F)cc2)ccc1-n1cnc(Cl)c1 (single isomer, unassigned) [Example 74A]
10 to 100 nM | COc1cc(Nc2nc3c(c(N4CC[C@H](F)C4)n2)COC3c2ccc(F)cc2)ccc1-n1cnc(Cl)c1 (single isomer, unassigned) [Example 76]
10 to 100 nM | CCNc1nc(Nc2ccc(-n3ncnc3C)c(F)c2)nc2c1COC2c1ccc(F)cc1 (single isomer, unassigned) [Example 78B, N^4-ethyl-N^2-(3-fluoro-4-(5-methyl-1H-1,2,4-triazol-1-yl)phenyl)-7-(4-fluorophenyl)-5,7-dihydrofuro[3,4-d]pyrimidine-2,4-diamine]
10 to 100 nM | CNc1nc(Nc2ccc(-n3cnc(Cl)c3)c(OC)c2)nc2c1COC2c1ccc(F)cc1 (single isomer, unassigned) [Example 79B, N^2-(4-(4-chloro-1H-imidazol-1-yl)-3-methoxyphenyl)-7-(4-fluorophenyl)-N^4-methyl-5,7-dihydrofuro[3,4-d]pyrimidine-2,4-diamine]
1.5 to 9.9 nM | CNc1nc(Nc2ccc(-n3cnc(Cl)c3)c(OC)c2)nc2c1CCC2c1ccc(F)c(F)c1 (single isomer, unassigned) [Example 96A, N^2-(4-(4-chloro-1H-imidazol-1-yl)-3-methoxyphenyl)-7-(3,4-difluorophenyl)-N^4-methyl-6,7-dihydro-5H-cyclopenta[d]pyrimidine-2,4-diamine]
10 to 100 nM | COc1cc(Nc2nc3c(c(N4CC(F)(F)C4)n2)CCC3c2ccc(OC(F)(F)F)cc2)ccc1-n1cnc(Cl)c1 (single isomer, unassigned) [Example 99A, N-(4-(4-chloro-1H-imidazol-1-yl)-3-methoxyphenyl)-4-(3,3-difluoroazetidin-1-yl)-7-(4-(trifluoromethoxy)phenyl)-6,7-dihydro-5H-cyclopenta[d]pyrimidin-2-amine]
10 to 100 nM | COc1cc(Nc2nc3c(c(N(C)C)n2)CCC3c2ccc(OC(F)(F)F)cc2)ccc1-n1cnc(Cl)c1 (single isomer, unassigned) [Example 100B, N^2-(4-(4-chloro-1H-imidazol-1-yl)-3-methoxyphenyl)-N^4,N^4-dimethyl-7-(4-(trifluoromethoxy)phenyl)-6,7-dihydro-5H-cyclopenta[d]pyrimidine-2,4-diamine]

same assay, conditions: 19 h, H4 APP751 SWE clone 8.20 cells, 19 h incubation; read-out: Activity Rating (Aβ42 cellular IC50), numeric value

IC50 | Structure (SMILES)
19 nM | CCNc1nc(Nc2ccc(-n3ncnc3C)c(F)c2)nc2c1COC2c1ccc(F)cc1 (single isomer, unassigned) [Example 78A, N^4-ethyl-N^2-(3-fluoro-4-(5-methyl-1H-1,2,4-triazol-1-yl)phenyl)-7-(4-fluorophenyl)-5,7-dihydrofuro[3,4-d]pyrimidine-2,4-diamine]
5.8 nM | CNc1nc(Nc2ccc(-n3cnc(Cl)c3)c(OC)c2)nc2c1COC2c1ccc(F)cc1 (single isomer, unassigned) [Example 79A, N^2-(4-(4-chloro-1H-imidazol-1-yl)-3-methoxyphenyl)-7-(4-fluorophenyl)-N^4-methyl-5,7-dihydrofuro[3,4-d]pyrimidine-2,4-diamine]
4.6 nM | CNc1nc(Nc2ccc(-n3cnc(Cl)c3)c(OC)c2)nc2c1CCC2c1ccc(F)c(F)c1 (single isomer, unassigned) [Example 96B, N^2-(4-(4-chloro-1H-imidazol-1-yl)-3-methoxyphenyl)-7-(3,4-difluorophenyl)-N^4-methyl-6,7-dihydro-5H-cyclopenta[d]pyrimidine-2,4-diamine]
190 nM | COc1cc(Nc2nc3c(c(N4CC(F)(F)C4)n2)CCC3c2ccc(OC(F)(F)F)cc2)ccc1-n1cnc(Cl)c1 (single isomer, unassigned) [Example 99B, N-(4-(4-chloro-1H-imidazol-1-yl)-3-methoxyphenyl)-4-(3,3-difluoroazetidin-1-yl)-7-(4-(trifluoromethoxy)phenyl)-6,7-dihydro-5H-cyclopenta[d]pyrimidin-2-amine]
4.7 nM | COc1cc(Nc2nc3c(c(N(C)C)n2)CCC3c2ccc(OC(F)(F)F)cc2)ccc1-n1cnc(Cl)c1 (single isomer, unassigned) [Example 100A, N^2-(4-(4-chloro-1H-imidazol-1-yl)-3-methoxyphenyl)-N^4,N^4-dimethyl-7-(4-(trifluoromethoxy)phenyl)-6,7-dihydro-5H-cyclopenta[d]pyrimidine-2,4-diamine]

same assay, conditions: H4 APP751 SWE clone 8.20 cells, 19 h incubation; class symbols; read-out: Activity Rating (Aβ42 cellular IC50)

IC50 | Structure (SMILES)
1.5 to 9.9 nM | CNc1nc(Nc2ccc(-n3cnc(C)n3)c(OC)c2)nc2c1COCC2c1ccc(Cl)cc1 (single isomer, unassigned) [Example 71A, 8-(4-chlorophenyl)-N^2-(3-methoxy-4-(3-methyl-1H-1,2,4-triazol-1-yl)phenyl)-N^4-methyl-7,8-dihydro-5H-pyrano[4,3-d]pyrimidine-2,4-diamine]
10 to 100 nM | CNc1nc(Nc2ccc(-n3cnc(C)n3)c(OC)c2)nc2c1COCC2c1ccc(Cl)cc1 (single isomer, unassigned) [Example 71B, 8-(4-chlorophenyl)-N^2-(3-methoxy-4-(3-methyl-1H-1,2,4-triazol-1-yl)phenyl)-N^4-methyl-7,8-dihydro-5H-pyrano[4,3-d]pyrimidine-2,4-diamine]
1.5 to 9.9 nM | CCNc1nc(Nc2ccc(-n3cnc(Cl)c3)c(OC)c2)nc2c1COC2c1ccc(F)cc1 (single isomer, unassigned) [Example 75A, N^2-(4-(4-chloro-1H-imidazol-1-yl)-3-methoxyphenyl)-N^4-ethyl-7-(4-fluorophenyl)-5,7-dihydrofuro[3,4-d]pyrimidine-2,4-diamine]
10 to 100 nM | CCNc1nc(Nc2ccc(-n3cnc(Cl)c3)c(OC)c2)nc2c1COC2c1ccc(F)cc1 (single isomer, unassigned) [Example 75B, N^2-(4-(4-chloro-1H-imidazol-1-yl)-3-methoxyphenyl)-N^4-ethyl-7-(4-fluorophenyl)-5,7-dihydrofuro[3,4-d]pyrimidine-2,4-diamine]
10 to 100 nM | COc1cc(Nc2nc3c(c(N4CC[C@H](F)C4)n2)COC3c2ccc(F)cc2)ccc1-n1cnc(Cl)c1 (single isomer, unassigned) [Example 77]
1.5 to 9.9 nM | COc1cc(Nc2nc3c(c(N4CC[C@@H](F)C4)n2)COC3c2ccc(F)cc2)ccc1-n1cnc(Cl)c1 (single isomer, unassigned) [Example 83A]
10 to 100 nM | COc1cc(Nc2nc3c(c(N4CC[C@@H](F)C4)n2)COC3c2ccc(F)cc2)ccc1-n1cnc(Cl)c1 (single isomer, unassigned) [Example 83B]
1.5 to 9.9 nM | CNc1nc(Nc2ccc(-n3cnc(Cl)c3)c(OC)c2)nc2c1CCC2c1ccc(Cl)cc1 (single isomer, unassigned) [Example 94A, N^2-(4-(4-chloro-1H-imidazol-1-yl)-3-methoxyphenyl)-7-(4-chlorophenyl)-N^4-methyl-6,7-dihydro-5H-cyclopenta[d]pyrimidine-2,4-diamine]
10 to 100 nM | CNc1nc(Nc2ccc(-n3cnc(Cl)c3)c(OC)c2)nc2c1CCC2c1ccc(Cl)cc1 (single isomer, unassigned) [Example 94B, N^2-(4-(4-chloro-1H-imidazol-1-yl)-3-methoxyphenyl)-7-(4-chlorophenyl)-N^4-methyl-6,7-dihydro-5H-cyclopenta[d]pyrimidine-2,4-diamine]
1.5 to 9.9 nM | COc1cc(Nc2nc3c(c(N(C)C)n2)CCC3c2ccc(F)c(F)c2)ccc1-n1cnc(Cl)c1 (single isomer, unassigned) [Example 95A, N^2-(4-(4-chloro-1H-imidazol-1-yl)-3-methoxyphenyl)-7-(3,4-difluorophenyl)-N^4,N^4-dimethyl-6,7-dihydro-5H-cyclopenta[d]pyrimidine-2,4-diamine]
10 to 100 nM | COc1cc(Nc2nc3c(c(N(C)C)n2)CCC3c2ccc(F)c(F)c2)ccc1-n1cnc(Cl)c1 (single isomer, unassigned) [Example 95B, N^2-(4-(4-chloro-1H-imidazol-1-yl)-3-methoxyphenyl)-7-(3,4-difluorophenyl)-N^4,N^4-dimethyl-6,7-dihydro-5H-cyclopenta[d]pyrimidine-2,4-diamine]
1.5 to 9.9 nM | CNc1nc(Nc2ccc(-n3cnc(Cl)c3)c(OC)c2)nc2c1CCC2c1ccc(OC(F)(F)F)cc1 (single isomer, unassigned) [Example 97A, N^2-(4-(4-chloro-1H-imidazol-1-yl)-3-methoxyphenyl)-N^4-methyl-7-(4-(trifluoromethoxy)phenyl)-6,7-dihydro-5H-cyclopenta[d]pyrimidine-2,4-diamine]
10 to 100 nM | CNc1nc(Nc2ccc(-n3cnc(Cl)c3)c(OC)c2)nc2c1CCC2c1ccc(OC(F)(F)F)cc1 (single isomer, unassigned) [Example 97B, N^2-(4-(4-chloro-1H-imidazol-1-yl)-3-methoxyphenyl)-N^4-methyl-7-(4-(trifluoromethoxy)phenyl)-6,7-dihydro-5H-cyclopenta[d]pyrimidine-2,4-diamine]
1.5 to 9.9 nM | CCNc1nc(Nc2ccc(-n3cnc(Cl)c3)c(OC)c2)nc2c1CCC2c1ccc(OC(F)(F)F)cc1 (single isomer, unassigned) [Example 98A, N^2-(4-(4-Chloro-1H-imidazol-1-yl)-3-methoxyphenyl)-N^4-ethyl-7-(4-(trifluoromethoxy)phenyl)-6,7-dihydro-5H-cyclopenta[d]pyrimidine-2,4-diamine]
10 to 100 nM | CCNc1nc(Nc2ccc(-n3cnc(Cl)c3)c(OC)c2)nc2c1CCC2c1ccc(OC(F)(F)F)cc1 (single isomer, unassigned) [Example 98B, N^2-(4-(4-Chloro-1H-imidazol-1-yl)-3-methoxyphenyl)-N^4-ethyl-7-(4-(trifluoromethoxy)phenyl)-6,7-dihydro-5H-cyclopenta[d]pyrimidine-2,4-diamine]
